The source of these data is patent publication US20250027079A1 (priority 2020, published 2025).

Structures can show the parent of a compound that is named as a salt. Where two headings read alike, the source gives them in different places. {AF594} = Alexa Fluor 594 dye

Series [1] has as its system CLas. It is filed as in vivo, Candidatus Liberibacter asiaticus. The following applies: for effect on quantity of the bacterium (Liberibacter titer) in infected Citrus trees: FANA 5 μM, streptomycin sulfate 5 mg/mL, sampling 2, 7, 14, 30 days (FIG. 5); for Liberibacter repression (percent change in CLas titer): CLas-infected Citrus trees, root infusion 5 mL of 5 μM.
The test system of series [2] is CLso. It is filed as in vivo, Candidatus Liberibacter solanacearum. The following applies: for foliar disease symptoms (foliar symptom ranking) / products with the greatest foliar symptom reduction: 8 week trial; for foliar disease symptoms (foliar symptom ranking): soil application (FIG. 11B); for products with the greatest foliar symptom reduction: comparison among all products (FIG. 11B); for tuber disease symptoms (proportion of symptomatic tubers) compared to CLso infected Control tubers: 8 week trial (FIG. 11C).

For series [3], the system named is CLso. It is filed as in vivo, Candidatus Liberibacter solanacearum. The conditions noted are these: CLso infected potato, soil applied drench, one gallon pots (FIG. 8); infected untreated control ave. 39, uninfected healthy 66 cm.
A further series relates to wDi gyrA gene. It is filed as cell-based, Wolbachia-Diaphorina.
The subject of a further series is CLas LigA gene. It is filed as in vivo, Candidatus Liberibacter asiaticus.
Series [4] deals with CLas. It is filed as in vivo, Candidatus Liberibacter asiaticus.
Series [5] relates to CLas. It is filed as in vivo, Candidatus Liberibacter asiaticus. This is another data set of the same source.
In another series the test system is D. citri adults. Also noted: species or system Diaphorina citri. The following applies: in vivo.

For the compound `[H]/N=C(/N)N[C@H]1[C@H](O)[C@@H](O)[C@H](O[C@@H]2O[C@@H](C)[C@](O)(C=O)[C@H]2O[C@@H]2O[C@@H](CO)[C@H](O)[C@@H](O)[C@@H]2NC)[C@@H](N/C(N)=N\[H])[C@@H]1O` [streptomycin sulfate, reference compound], in the series on CLas [1] (root infusion), the “effect on quantity of the bacterium (Liberibacter titer) in infected Citrus trees” value was “did not significantly reduced”.
For “AATAAACGCAATGACCAATCC (FANA modification, further chemistry not given here) [CLso-1 GyrA-Ext-1, FANA ASO, CLso Gyrase-A]”, the “foliar disease symptoms (foliar symptom ranking)” value (from here on “foliar disease symptoms”) in the series on CLso [2] was “significantly reduced”. In the series with CLso [3], the “plant growth, average height” value was determined as 51 centimeters.
Turning to “ATAACCTTGACGATCTGATTC (FANA modification, further chemistry not given here) [CLso-2 Gyr-Ext-2, FANA ASO, CLso Gyrase-A]”, in the series with CLso [2], the “products with the greatest foliar symptom reduction” value is given as “most symptom reduction” and the “foliar disease symptoms” value was “significantly reduced”. In the series with CLso [3], the “plant growth, average height” value was 51 centimeters.
As to “AUAUCCTTGTCGTATCCCAGU (FANA modification, further chemistry not given here) [scramble control FANA, reference compound]”, in the series on wDi gyrA gene, the “expression of the wDi gyrA gene versus untreated cells” value is recorded as “No significant difference”. In the series on wDi cells, the “number of viable wDi cells (wDi copy number, PMA-qPCR)” value is “high wDi copy number” and the “toxicity of the FANA chemistry to the bacterial cells or the Drosophila S2 cells” value is given as “not toxic”. In addition, the “amount of CLas LygA mRNA versus untreated psyllids” value with CLas LigA gene (in vivo) is on record as “no significant difference”. The “CLas density (copy number) in psyllids” value in the series on CLas [4] (in vivo) is on record as “No difference”.
For the compound “CAAATCAGGTATAGCACGGCC (FANA modification, further chemistry not given here) [CLso-2Gyr, FANA ASO, CLso Gyrase A]”, in the series on CLso [2], the “foliar disease symptoms” value was “significantly reduced”.
Turning to “CATTTTGTATATGCGAGGACA (FANA modification, further chemistry not given here) [CLsoDNAB-4, FANA ASO, CLso DnaB-Helicase C]”, in the series on CLso [2], the “tuber disease symptoms (proportion of symptomatic tubers) compared to CLso infected Control tubers” value is recorded as “significantly reduced” and the “foliar disease symptoms” value is “significantly reduced”.
For “CGATTAAAAGCTTGTCCAGCC (FANA modification, further chemistry not given here) [CLsoDNAB-3, FANA ASO, CLso DnaB-Helicase C]”, the “foliar disease symptoms” value in the series on CLso [2] is on record as “significantly reduced”.
In the case of “CGGCACAGCAATTAGAACGTC (FANA modification, further chemistry not given here) [LigA-FANA, FANA antisense oligo designed to target the CLas NAD-dependent DNA Ligase A gene]”, the “success of treated psyllids in transmitting the pathogen into citrus plants compared to untreated insects” value in the series on CLas [5] (psyllids treated seven days, 15 days inoculation access on Citrus macrophylla seedlings, p=0.018) is on record as “less successful in transmitting the pathogen”. Further, in the series with CLas [5] (seedlings sampled three months later (FIG. 7)), the “CLas copy number detected in the citrus plants exposed to the treated psyllids” value is on record as “significantly lower”. Further, in the series with CLas LigA gene (D. citri adults fed on excised Citrus leaves that took up 5 μM FANA solution, seven days, qRT-PCR (FIG. 2B)), the “decrease of expression of the bacterial target gene (CLas LigA) compared to untreated psyllids” value is 75%. In addition, the “CLas LigA transcript level compared to insects treated with the scramble control” value with CLas LigA gene (D. citri adults, 5 μM via leaves, seven days, p=0.009) is on record as “significantly lower”. Further, the “CLas density (copy number) in psyllids” value with CLas [4] (D. citri adults, artificial diet 5 μM, seven days post-treatment, qPCR of 16S rRNA gene (FIG. 4), versus untreated psyllids) was “significantly lower”. Besides, the “Liberibacter repression (percent change in CLas titer)” value with CLas [1] (seven days post treatment (FIG. 5)) stood at 51.6%; in the series with CLas [1] (two days post treatment (FIG. 5)), 81%. Moreover, the “persistence of the suppression effect” value in the series with CLas [1] (root infusion, sampling period) stood at 30 days. Besides, the “effect on quantity of the bacterium (Liberibacter titer) in infected Citrus trees” value in the series on CLas [1] (root infusion) is reported as “significantly reduced”.
Regarding “GAAGAACGGGCGAACTTTTTG (chemistry not given here) [L. solanacearum CLso2 -GyrA host Potato]”, in the series on CLso [2], the “foliar disease symptoms” value is on record as “significantly reduced”. The “plant growth, average height” value in the series on CLso [3] is on record as 51 centimeters.
For the compound “GATTGAAGGGCAGGGGAATTC (chemistry not given here)”, in the series on CLso [2], the “foliar disease symptoms” value is on record as “significantly reduced”.
On to “GCATCATTATTCACTAGGATAG (FANA modification, further chemistry not given here) [CLsoDNAB-1, FANA ASO, CLso DnaB-Helicase C]”, for which, in the series on CLso [2], the “products with the greatest foliar symptom reduction” value is “most symptom reduction” and the “foliar disease symptoms” value is given as “significantly reduced”.
Take “GGGAATATTCGTCGCCATACC (FANA modification, further chemistry not given here) [CLso-4Gyr, FANA ASO, CLso Gyrase A]”: the “foliar disease symptoms” value with CLso [2] is given as “significantly reduced”.
In the case of “TAGTTCCGATTTGTATGCATC (FANA modification, further chemistry not given here) [CLsoDnaB-6, FANA ASO, CLso DnaB-Helicase C]”, the “foliar disease symptoms” value in the series on CLso [2] is on record as “significantly reduced”.
As to “TATGGAAACAGCCTCAGATGC (FANA modification, further chemistry not given here) [CLsoDNAB-2, FANA ASO, CLso DnaB-Helicase C]”, in the series with CLso [2], the “tuber disease symptoms (proportion of symptomatic tubers) compared to CLso infected Control tubers” value is reported as “significantly reduced” and the “foliar disease symptoms” value is reported as “significantly reduced”.
Turning to “TATTACGATAGATCCTCGACC (FANA modification, further chemistry not given here) [CLso-2Gyr-Ext-3, FANA ASO, CLso Gyrase A]”, the “foliar disease symptoms” value with CLso [2] was “significantly reduced”.
For “TGGTATGGCAACCAATATTCC (FANA modification, further chemistry not given here) [gyrA-FANA]”, the “reduction in the amount of the target mRNA (wDi gyrA) compared to untreated cells” value with wDi gyrA gene (S2-wDi cells, 5 μM, seven days post-treatment, qRT-PCR (FIG. 2A)) was 30%. The “wDi gyrA transcript level compared to cells treated with the scramble control” value with wDi gyrA gene (S2-wDi cells, 5 μM, seven days, p=0.009) is listed as “significantly lower”. Moreover, in the series on wDi cells (isolated wDi cells, 5 μM, four days, versus untreated or scramble control (FIG. 3)), the “number of viable wDi cells (wDi copy number, PMA-qPCR)” value is given as “greatly reduced”.
“TGTATATGCGAGGACATCGTC (FANA modification, further chemistry not given here) [CLso-DnaB-7, FANA ASO, CLso DnaB-Helicase C]”: the “foliar disease symptoms” value in the series with CLso [2] is recorded as “significantly reduced”.
“TTCTATCAGGGTAAATCGCTC (FANA modification, further chemistry not given here) [CLso-2 Gyr-Ext-4, FANA ASO, CLso Gyrase-A]”: in the series with CLso [2], the “tuber disease symptoms (proportion of symptomatic tubers) compared to CLso infected Control tubers” value is on record as “significantly reduced” and the “foliar disease symptoms” value is listed as “significantly reduced”. In addition, the “plant growth, average height” value in the series with CLso [3] worked out at 51 centimeters.
Turning to “TTGTCCAGCCATATCAATAGC (FANA modification, further chemistry not given here) [CLsoDnaB-5, FANA ASO, CLso DnaB-Helicase C]”, the “foliar disease symptoms” value in the series on CLso [2] is “significantly reduced”.
As for “fluorophore-tagged FANA oligo control: FANA ASO with scramble sequence [SEQ ID NO: 1 and SEQ ID NO: 2] tagged with Alexa Fluor 594 at its 5′ end (chain 1 ACTGGGATACGACAAGGATAT; chain 2 TCTTGGAACAGCATAGGGACA; 5' {AF594}, sugars by position and backbone not given here; FANA ASO)”, the “localization of the oligo in psyllid alimentary canal” value with D. citri adults is “detected mainly in the psyllid esophagus, filter chamber and anterior midgut”.
